Experimental data from PMC10855879, “Formulation Studies with Cyclodextrins for Novel Selenium NSAID Derivatives” (International Journal of Molecular Sciences, 2024).
Values after ≈ are worked out from the molar mass of the structure shown. “Also recorded” adds a separate entry of the source. Where two headings read alike, the source gives them in different places.

How the values were obtained:
[1] = Water solubility by quantitative 1H-NMR in D2O, alone or with cyclodextrin; type: physicochemical; details: for solubility: 25 °C, thermodynamic from solid, 298 K; for Improvement of water solubility after exposure to β- and γ-CD (in words): complexes versus compounds alone
Procedure: For all the Se-NSAID derivatives, the formation of inclusion complexes either with β- or γ-CDs was evaluated by quantitative proton nuclear magnetic resonance (^1H-NMR) spectroscopy (Figures S1–S40 in Supplementary Materials). The election for such CDs is based on the fact that β-CD is one of the most frequently used CDs for encapsulating NSAIDs. Additionally, given the size of the studied molecules, a larger CD such as γ-CDs was also evaluated.
The experimental formation of inclusion complexes with either β-CD or γ-CD was evaluated via quantitative ^1H-NMR spectroscopy. This method is based on the consideration that the integration for a given signal that is selected as a marker for a given compound is proportional to its concentration. Consequently, solutions of 0.5 mL in D2O (≥99.85% in deuterated component) with an excess of each compound were prepared, along with either 4 mg of dimethyl sulfone (as internal standard) or with the corresponding CD at 10 mM. ^1H-NMR spectra were recorded at 298 K on a Bruker Avance Neo at a proton resonance frequency of 400 MHz. The solubilities were calculated considering the ratio between the area of the peaks belonging to the internal standard or the CDs and the different hydrogens of the Se-NSAID derivatives.

colon cancer = test system: colon cancer; set-up: method as in PMID 37759969; details: in vitro and in vivo; cited from earlier work
[2] = water, D2O, compound alone, dimethyl sulfone internal standard, read-out: Water Solubility, Compound
[3] = D2O with β-cyclodextrin, aqueous with cosolvent or surfactant or cyclodextrin, D2O, β-CD 10 mM, read-out: Water Solubility, Compound + β-CD
[4] = D2O with γ-cyclodextrin, aqueous with cosolvent or surfactant or cyclodextrin, D2O, γ-CD 10 mM, read-out: Water Solubility, Compound + γ-CD

For COc1ccc2cc(C(C)C(=O)[Se]CCC#N)ccc2c1 (centres unmarked) [I.3e], the solubility [1, 2] was 9.7 µM (≈ 3.36 µg/mL), the solubility [1, 3] was 992 µM and the solubility [1, 4] was 273 µM. For the same molecule, the “Improvement of water solubility after exposure to β- and γ-CD (in words)” value [1] was “remarkable improvement; also recorded: remarkable increase; also recorded: almost two orders of magnitude”.

For COc1ccc2c(c1)c(CC(=O)[Se]CC(=O)O)c(C)n2C(=O)c1ccc(Cl)cc1 [I.4a], the solubility [1, 2] was 22.4 µM (≈ 10.7 µg/mL), the solubility [1, 3] was 56.5 µM and the solubility [1, 4] was 52.4 µM.

Molecule COC(=O)C[Se]C(=O)Cc1c(C)n(C(=O)c2ccc(Cl)cc2)c2ccc(OC)cc12 [I.4b] has a solubility [1, 2] of 12 µM (≈ 5.91 µg/mL), a solubility [1, 3] of 157 µM and a solubility [1, 4] of 43.9 µM.

With COc1ccc2c(c1)c(CC(=O)[Se]CC#N)c(C)n2C(=O)c1ccc(Cl)cc1 [I.4d] the solubility [1, 2] was 20 µM (≈ 9.2 µg/mL), the solubility [1, 3] was 45.3 µM and the solubility [1, 4] was 33.7 µM.

Work on COc1ccc2c(c1)c(CC(=O)[Se]CCC#N)c(C)n2C(=O)c1ccc(Cl)cc1 [I.4e] yielded a solubility [1, 2] of 5.72 µM (≈ 2.71 µg/mL), a solubility [1, 3] of 45.5 µM and a solubility [1, 4] of 42.1 µM.

Molecule CC(=O)Oc1ccccc1C(=O)[Se][Se]C(=O)c1ccccc1OC(C)=O [II.1] has a solubility [1, 2] of 8.43 µM (≈ 4.08 µg/mL), a solubility [1, 3] of 101 µM and a solubility [1, 4] of 15.1 µM.

COc1ccc2c(c1)c(CC(=O)[Se][Se]C(=O)Cc1c(C)n(C(=O)c3ccc(Cl)cc3)c3ccc(OC)cc13)c(C)n2C(=O)c1ccc(Cl)cc1 [II.2] gave a solubility [1, 2] of 0.132 µM (≈ 0.111 µg/mL), a solubility [1, 3] of 7.96 µM and a solubility [1, 4] of 7.6 µM.

COc1ccc2cc([C@H](C)C(=O)[Se][Se]C(=O)[C@@H](C)c3ccc4cc(OC)ccc4c3)ccc2c1 [II.3] showed a solubility [1, 2] of 0.605 µM (≈ 0.354 µg/mL), a solubility [1, 3] of 0.219 µM and a solubility [1, 4] of 6.14 µM.

For CC(C(=O)[Se][Se]C(=O)C(C)c1cccc(C(=O)c2ccccc2)c1)c1cccc(C(=O)c2ccccc2)c1 (centres unmarked) [II.4], the solubility [1, 2] was 5.57 µM (≈ 3.52 µg/mL), the solubility [1, 3] was 27 µM and the solubility [1, 4] was 17.7 µM.

In the case of CC(C)Cc1ccc(C(C)C(=O)[Se][Se]C(=O)C(C)c2ccc(CC(C)C)cc2)cc1 (centres unmarked) [II.5], the “Anticancer properties (in words)” value (colon cancer) is listed as “potent anticancer properties”, the solubility [1, 2] is listed as 21.2 µM (≈ 11.4 µg/mL) and the solubility [1, 3] is listed as 5420 µM. The solubility [1, 4] was 7500 µM, the “Improvement of water solubility after exposure to β- and γ-CD (in words)” value [1] was “remarkable improvement; also recorded: remarkable increase; also recorded: almost two orders of magnitude” and the “Increase in water solubility with β-CD” value ([1]; versus compound alone, D2O) was “up to 250 fold”. For the same molecule, the “Increase in water solubility with γ-CD” value ([1]; versus compound alone, D2O) was ≤ 350 fold.
